{
  "source": "patent US20120149711A1",
  "about": "“PIPERIDINE DERIVATIVES USED AS OREXIN ANTAGONISTS” (Glaxo Group Limited, priority 2009, published 2012)",
  "origin": "cited, not measured here",
  "system": "freely-feeding rats",
  "details": "central administration, 4 hour time period",
  "note": "No end group written: not given here.",
  "data": [
    {"substance": "orexin-A: ligand for the orexin-1 receptor; an agonist of the orexin receptors (QPLPDCCRQKTCSCRLYELLHGAGNHAAGILTL; ends and bridges not checked; cysteine pairing not given here; UniProt O43612 34-66, looked up)", "values": [
      {"measurement": "increase of food intake over control rats receiving vehicle", "value": "approximately four-fold"}
    ]}
  ]
}
